Assay results reported in DBAASP.
Values after ≈ are worked out from the molar mass of the structure shown.

What was measured:
Test in all cases: ≥ marks a high value that may be exact or a test limit, other limits are often not marked, values filed in µg/mL are converted to µM
[1] = test system: Candida albicans ATCC 1023
Candida albicans = test system: Candida albicans
Candida tropicalis = test system: Candida tropicalis
[2] = test system: Enterococcus faecalis ATCC 29212
[3] = test system: Enterococcus faecalis NCTC 12697
[4] = test system: Escherichia coli ATCC 25922
[5] = test system: Escherichia coli NCTC 10418
[6] = test system: Pseudomonas aeruginosa ATCC 27853
[7] = test system: Staphylococcus aureus ATCC 25923
[8] = test system: Staphylococcus aureus NCTC 10788
[9] = test system: Bordetella bronchiseptica CUN 11844-99
[10] = test system: Pseudomonas aeruginosa CUN 4158-02
[11] = test system: Staphylococcus aureus ATCC 43300
Vibrio cholerae CUN 09 = test system: Vibrio cholerae CUN 09
[12] = test system: Enterobacter cloacae BCRC 10401
[13] = test system: Escherichia coli BCRC 10675
[14] = test system: Klebsiella aerogenes BCRC 10370
[15] = test system: Klebsiella oxytoca BCRC 13985
Lactococcus garvieae = test system: Lactococcus garvieae
[16] = test system: Listeria monocytogenes BCRC 14845
[17] = test system: Pseudomonas aeruginosa BCRC 10944
[18] = test system: Staphylococcus aureus BCRC 10780
[19] = test system: Staphylococcus aureus BCRC 10781
[20] = test system: Staphylococcus xylosus BCRC 12930
[21] = test system: Streptococcus equinus BCRC 14729
Streptococcus iniae = test system: Streptococcus iniae
[22] = test system: Vibrio alginolyticus BCRC 12829
Vibrio alginolyticus = test system: Vibrio alginolyticus
[23] = test system: Vibrio anguillarum serotype O1
Vibrio harveyi = test system: Vibrio harveyi
[24] = test system: Vibrio parahaemolyticus BCRC 10806
Vibrio parahaemolyticus = test system: Vibrio parahaemolyticus
[25] = test system: Yersinia enterocolitica BCRC 13999
[26] = test system: Enterobacter cloacae 218R
[27] = test system: Enterococcus faecalis W61950
[28] = test system: Enterococcus faecalis f43559
[29] = test system: Enterococcus faecium mic80
[30] = test system: Enterococcus faecium t62764
[31] = test system: Escherichia coli ESBL 63103
[32] = test system: Escherichia coli ESBL 64771
[33] = test system: Klebsiella pneumoniae ESBL 61962
[34] = test system: Klebsiella pneumoniae ESBL 63575
[35] = test system: Pseudomonas aeruginosa 198
[36] = test system: Pseudomonas aeruginosa 213
Pseudomonas aeruginosa 9 = test system: Pseudomonas aeruginosa 9
[37] = test system: Pseudomonas aeruginosa H1027
[38] = test system: Pseudomonas aeruginosa H1030
[39] = test system: Pseudomonas aeruginosa LES400
[40] = test system: Pseudomonas aeruginosa PAO1 H103
[41] = test system: Staphylococcus aureus C623
[42] = test system: Stenotrophomonas maltophilia ATCC 13637

CSCC[C@H](NC(=O)[C@H](CC(=O)O)NC(=O)[C@@H](NC(=O)[C@@H](NC(=O)[C@H](C)NC(=O)[C@H](CC(N)=O)NC(=O)[C@H](CC(C)C)NC(=O)[C@H](C)NC(=O)[C@H](C)NC(=O)[C@H](CCCCN)NC(=O)CNC(=O)[C@H](C)NC(=O)[C@H](C)NC(=O)[C@H](CCCCN)NC(=O)CNC(=O)[C@@H](NC(=O)[C@H](CC(N)=O)NC(=O)[C@H](CCCCN)NC(=O)[C@H](CC(C)C)NC(=O)[C@H](CC(C)C)NC(=O)[C@@H](NC(=O)[C@H](CCCCN)NC(=O)[C@H](Cc1c[nH]c2ccccc12)NC(=O)[C@H](CC(C)C)NC(=O)[C@H](C)N)[C@@H](C)O)C(C)C)C(C)C)[C@@H](C)O)C(=O)N[C@H](C(=O)N[C@@H](CC(N)=O)C(=O)N[C@@H](CCC(N)=O)C(=O)O)C(C)C [ALWKTLLKNVGKAAGKAALNAVTDMVNQ]
MIC [1]: 10.9 µM (≈ 31.9 µg/mL) | MIC (Candida albicans): 21.8 µM (≈ 63.8 µg/mL) | MIC (Candida tropicalis): 10.9 µM (≈ 31.9 µg/mL) | MIC [2]: 10 µM (≈ 29.3 µg/mL) | MIC [3]: 10 µM (≈ 29.3 µg/mL) | MIC [4]: 2.5 µM (≈ 7.32 µg/mL) | MIC [5]: 2.5 µM (≈ 7.32 µg/mL) | MIC [6]: 40 µM (≈ 117 µg/mL) | MIC [7]: 1.3 µM (≈ 3.8 µg/mL) | MIC [8]: 1.3 µM (≈ 3.8 µg/mL)

CC(C)C[C@H](NC(=O)[C@H](CCCCN)NC(=O)CNC(=O)[C@H](CCCCN)NC(=O)[C@H](Cc1ccccc1)NC(=O)[C@H](CCCCN)NC(=O)[C@H](Cc1c[nH]c2ccccc12)NC(=O)[C@H](CCCN=C(N)N)NC(=O)[C@H](Cc1ccccc1)NC(=O)[C@H](CCCN=C(N)N)NC(=O)[C@H](CCCN=C(N)N)NC(=O)[C@H](Cc1ccc(O)cc1)NC(=O)[C@H](CCCCN)NC(=O)[C@H](CCCCN)NC(=O)[C@H](CS)NC(=O)CN)C(=O)N[C@@H](Cc1ccccc1)C(=O)N[C@@H](CC(C)C)C(=O)N[C@@H](Cc1ccccc1)C(=O)NCC(N)=O [GCKKYRRFRWKFKGKLFLFG]
MIC [9]: 1.56 µM (≈ 4 µg/mL) | MIC [4]: 3.12 µM (≈ 8 µg/mL) | MIC [10]: 6.24 µM (≈ 16 µg/mL) | MIC [7]: 3.12 µM (≈ 8 µg/mL) | MIC [11]: 3.12 µM (≈ 8 µg/mL) | MIC (Vibrio cholerae CUN 09): 6.24 µM (≈ 16 µg/mL)

CC[C@H](C)[C@H](NC(=O)[C@H](Cc1ccc(O)cc1)NC(=O)[C@H](CCCCN)NC(=O)[C@H](Cc1ccccc1)NC(=O)[C@H](Cc1ccccc1)NC(=O)[C@H](CCCCN)NC(=O)[C@H](CC(N)=O)NC(=O)[C@@H](NC(=O)[C@H](Cc1ccc(O)cc1)NC(=O)[C@H](CCCCN)NC(=O)[C@@H](NC(=O)[C@@H](NC(=O)[C@H](CC(N)=O)NC(=O)[C@H](CC(N)=O)NC(=O)[C@@H](NC(=O)[C@H](Cc1ccc(O)cc1)NC(=O)[C@H](CCCCN)NC(=O)[C@H](Cc1ccc(O)cc1)NC(=O)CN)[C@@H](C)CC)[C@@H](C)CC)[C@@H](C)CC)[C@@H](C)CC)C(=O)N[C@@H](Cc1c[nH]c2ccccc12)C(=O)O [GYKYINNIIKYINKFFKYIW]
MIC [12]: 6.09 µM (≈ 16 µg/mL) | MIC [13]: 6.09 µM (≈ 16 µg/mL) | MIC [14]: 6.09 µM (≈ 16 µg/mL) | MIC [15]: 6.09 µM (≈ 16 µg/mL) | MIC (Lactococcus garvieae): ≥ 48.7 µM | MIC [16]: 12.2 µM (≈ 32 µg/mL) | MIC [17]: 12.2 µM (≈ 32 µg/mL) | MIC [18]: 3.04 µM (≈ 8 µg/mL) | MIC [19]: 3.04 µM (≈ 8 µg/mL) | MIC [20]: 3.04 µM (≈ 8 µg/mL) | MIC [21]: ≥ 48.7 µM | MIC (Streptococcus iniae): 12.2 µM (≈ 32 µg/mL) | MIC [22]: 12.2 µM (≈ 32 µg/mL) | MIC (Vibrio alginolyticus): 3.04 µM (≈ 8 µg/mL) | MIC [23]: 3.04 µM (≈ 8 µg/mL) | MIC (Vibrio harveyi): 3.04 µM (≈ 8 µg/mL) | MIC [24]: 12.2 µM (≈ 32 µg/mL) | MIC (Vibrio parahaemolyticus): 3.04 µM (≈ 8 µg/mL) | MIC [25]: ≥ 48.7 µM

CC[C@H](C)[C@H](NC(=O)[C@H](Cc1c[nH]c2ccccc12)NC(=O)[C@H](CCCCN)NC(=O)[C@@H](N)CCCN=C(N)N)C(=O)N[C@@H](Cc1c[nH]c2ccccc12)C(=O)N[C@@H](CCCN=C(N)N)C(=O)N[C@@H](Cc1c[nH]c2ccccc12)C(=O)N[C@@H](Cc1ccccc1)C(=O)N[C@@H](CC(C)C)C(=O)O [RKWIWRWFL]
MIC [26]: 1.58 µM (≈ 2.2 µg/mL) | MIC [2]: 3.16 µM (≈ 4.4 µg/mL) | MIC [27]: 12.2 µM (≈ 17 µg/mL) | MIC [28]: 12.2 µM (≈ 17 µg/mL) | MIC [29]: 1.58 µM (≈ 2.2 µg/mL) | MIC [30]: 1.58 µM (≈ 2.2 µg/mL) | MIC [31]: 0.791 µM (≈ 1.1 µg/mL) | MIC [32]: 0.791 µM (≈ 1.1 µg/mL) | MIC [33]: 1.58 µM (≈ 2.2 µg/mL) | MIC [34]: 1.58 µM (≈ 2.2 µg/mL) | MIC [35]: 1.58 µM (≈ 2.2 µg/mL) | MIC [36]: 3.16 µM (≈ 4.4 µg/mL) | MIC (Pseudomonas aeruginosa 9): 6.18 µM (≈ 8.6 µg/mL) | MIC [37]: 0.791 µM (≈ 1.1 µg/mL) | MIC [38]: 1.58 µM (≈ 2.2 µg/mL) | MIC [39]: 3.16 µM (≈ 4.4 µg/mL) | MIC [40]: 3.16 µM (≈ 4.4 µg/mL) | MIC [7]: 1.58 µM (≈ 2.2 µg/mL) | MIC [41]: 1.58 µM (≈ 2.2 µg/mL) | MIC [42]: 0.791 µM (≈ 1.1 µg/mL)

CC[C@H](C)[C@H](NC(=O)[C@H](Cc1ccccc1)NC(=O)[C@H](CCCCN)NC(=O)[C@H](Cc1ccccc1)NC(=O)[C@H](CCCN=C(N)N)NC(=O)[C@@H](N)CCCN=C(N)N)C(=O)N[C@@H](CCCN=C(N)N)C(=O)N[C@@H](Cc1c[nH]c2ccccc12)C(=O)N[C@@H](Cc1c[nH]c2ccccc12)C(=O)O [RRFKFIRWW]
MIC [26]: 6.17 µM (≈ 8.6 µg/mL) | MIC [2]: 6.17 µM (≈ 8.6 µg/mL) | MIC [27]: ≥ 50.2 µM | MIC [28]: 25.1 µM (≈ 35 µg/mL) | MIC [29]: 3.15 µM (≈ 4.4 µg/mL) | MIC [30]: 3.15 µM (≈ 4.4 µg/mL) | MIC [31]: 6.17 µM (≈ 8.6 µg/mL) | MIC [32]: 6.17 µM (≈ 8.6 µg/mL) | MIC [33]: ≥ 50.2 µM | MIC [34]: 25.1 µM (≈ 35 µg/mL) | MIC [35]: 25.1 µM (≈ 35 µg/mL) | MIC [36]: 25.1 µM (≈ 35 µg/mL) | MIC (Pseudomonas aeruginosa 9): 12.2 µM (≈ 17 µg/mL) | MIC [37]: 1.58 µM (≈ 2.2 µg/mL) | MIC [38]: 25.1 µM (≈ 35 µg/mL) | MIC [39]: 6.17 µM (≈ 8.6 µg/mL) | MIC [40]: 3.15 µM (≈ 4.4 µg/mL) | MIC [7]: 3.15 µM (≈ 4.4 µg/mL) | MIC [41]: 3.15 µM (≈ 4.4 µg/mL) | MIC [42]: 0.43 µM (≈ 0.6 µg/mL)
